Laboratory results taken from US20060263427A1, “Quinine formulations” (priority 2005, published 2006).
Structures can show the parent of a compound that is named as a salt. Where two headings read alike, the source gives them in different places.

Assays:
[1] = clinical; settings: human, plasma, oral
[2] = clinical; settings: human, in vivo
[3] = 324 mg, 1 capsule, fasted
[4] = fasted, non-transformed data, least squares mean
[5] = QTc interval measurements (ECG) over 24 hours after single oral dose of Quinine Sulfate (Example 6, Studies 1 and 2); format: in vivo, human
[6] = Mean plasma quinine concentration over 24 hours after single oral dose of Quinine Sulfate (Example 6, Studies 1 and 2); format: in vivo, human; settings: for concentration at 0 h / concentration at 2 h / concentration at 4 h / concentration at 6 h / concentration at 12 h / concentration at 24 h: both sexes, human, plasma, oral
[7] = in vivo
[8] = non-transformed data, least squares mean
[9] = 324 mg, Study 1, B: 324 mg capsule, fed
[10] = 324 mg, Study 2, C: 324 mg capsule, fasting
[11] = 648 mg, Study 2, D: 648 mg (two capsules), fasting

Tmax ([1]; 260 mg): 2.61 h
AUC0-t ([1]; 324 mg): 30300 ng·h/mL
AUC(0-inf) ([1]; 324 mg): 32100 ng·h/mL
Cmax ([1]; 324 mg): 2280 ng/mL
Tmax ([1]; 324 mg): 2.75 h
Tmax ([2]; 324 mg): 2.78 h
Tmax ([2]; 648 mg): 2.8 h
AUC(0-inf) ([2]; 648 mg, AUC0-INF): 59200 ng·h/mL
AUC0-t ([2]; 648 mg, AUC0-t): 54400 ng·h/mL
Cmax ([2]; 648 mg, Cmax): 3240 ng/mL
Cmax ([3]; Ln-transformed data, geometric mean): 2242.70 ng/mL
AUC0-INF [3, 8]: 33280.89 ng·h/mL
AUC0-t [3, 8]: 31298.12 ng·h/mL
kelim ([4]; 324 mg, 1 capsule): 0.0592
kelim ([4]; 648 mg, 2 capsules): 0.0572
Mean Plasma Concentration ([6]; Study 2, C: 324 mg capsule, fasting, 0 hours): 0; ng/ml
concentration at 0 h ([6]; 324 mg, Study 1, B: 324 mg capsule, fed, 0 hours): 0 ng/mL
concentration at 2 h [6, 9]: 835 ng/mL
concentration at 4 h [6, 9]: 2260 ng/mL
concentration at 6 h [6, 9]: 2010 ng/mL
concentration at 12 h [6, 9]: 1220 ng/mL
concentration at 24 h [6, 9]: 543 ng/mL
concentration at 2 h [6, 10]: 1860 ng/mL
concentration at 4 h [6, 10]: 1880 ng/mL
concentration at 6 h [6, 10]: 1710 ng/mL
concentration at 12 h [6, 10]: 994 ng/mL
concentration at 24 h [6, 10]: 475 ng/mL
concentration at 0 h ([6]; 648 mg, Study 2, D: 648 mg (two capsules), fasting, 0 hours): 0 ng/mL
concentration at 2 h [6, 11]: 2810 ng/mL
concentration at 4 h [6, 11]: 2950 ng/mL
concentration at 6 h [6, 11]: 2720 ng/mL
concentration at 12 h [6, 11]: 1700 ng/mL
concentration at 24 h [6, 11]: 912 ng/mL
AUC0-INF ([7]; human, 648 mg): 61817.27 ng·h/mL
AUC0-t ([7]; human, 648 mg): 56394.65 ng·h/mL
Cmax ([7]; human, 648 mg): 3174.89 ng/mL
dose proportionality of AUCT and AUCinf [7]: proportional increase
dose proportionality of Cmax [7]: nonlinear dose proportionality
Compound: C=C[C@H]1C[N@@]2CC[C@H]1C[C@H]2[C@H](O)c1ccnc2ccc(OC)cc12 [Quinine Sulfate, cinchonan-9-ol, 6′-methoxy-, (8α,9R)-, sulfate (2:1)]
subjects with significant prolongations in QTc interval (>450 msec) ([5]; 50 subjects, single oral doses 324 mg or 648 mg): seven
relation of mean QTc value to plasma concentration ([5]; single oral doses, Table 1): an increase in the mean QTc value was found to correspond with the peak quinine plasma concentration
